Laboratory results as given in paper PMC10803289, “Transport and inhibition mechanism of the human SGLT2–MAP17 glucose transporter” (Nature Structural & Molecular Biology, 2023).
Values joined by “and” are separate entries in the source; they are usually repeats but may differ in a detail not shown here. Equal entries are not always repeated.

Key:
[1] = molecular target: T1, wild-type hSGLT2 (membrane fraction of hSGLT2 and MAP17 expressing cells) (Homo sapiens, UniProt P31639); assay: SGLT2 inhibitor-binding assay via affinity selection–mass spectrometry, crude membrane, WT
T1 construct: expressed in transfected cells; host or cells: Expi293 cells, crude membrane fraction
T1 sequence (P31639 1-672): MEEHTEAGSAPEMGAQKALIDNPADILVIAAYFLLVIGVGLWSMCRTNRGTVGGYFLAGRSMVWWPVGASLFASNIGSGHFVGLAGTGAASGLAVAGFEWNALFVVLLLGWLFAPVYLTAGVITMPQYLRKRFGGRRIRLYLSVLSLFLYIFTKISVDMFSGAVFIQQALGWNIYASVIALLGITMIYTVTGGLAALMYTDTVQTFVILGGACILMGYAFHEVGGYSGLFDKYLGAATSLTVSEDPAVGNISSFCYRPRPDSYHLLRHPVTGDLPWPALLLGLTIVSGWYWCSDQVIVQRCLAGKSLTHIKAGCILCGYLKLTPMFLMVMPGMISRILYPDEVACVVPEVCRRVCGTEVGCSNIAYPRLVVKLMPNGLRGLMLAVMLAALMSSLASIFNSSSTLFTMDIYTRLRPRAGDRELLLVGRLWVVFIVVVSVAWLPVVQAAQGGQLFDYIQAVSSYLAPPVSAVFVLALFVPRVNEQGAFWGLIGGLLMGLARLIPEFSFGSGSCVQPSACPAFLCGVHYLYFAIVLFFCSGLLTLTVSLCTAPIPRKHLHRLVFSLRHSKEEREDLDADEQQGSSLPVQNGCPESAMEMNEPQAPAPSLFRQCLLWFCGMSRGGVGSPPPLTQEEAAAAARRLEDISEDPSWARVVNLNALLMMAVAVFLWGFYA
T1 sequence (Q13113 1-114 partner): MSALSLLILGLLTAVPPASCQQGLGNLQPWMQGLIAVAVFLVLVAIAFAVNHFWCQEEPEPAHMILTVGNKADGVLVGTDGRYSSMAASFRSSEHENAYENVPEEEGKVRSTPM
Experimental: To examine the inhibition of binding to the crude membrane, mammalian Expi293 cells were co-transfected with the hMAP17 and hSGLT2 plasmids, as described. The cells were collected and disrupted by sonication in a hypotonic buffer (50 mM HEPES–NaOH (pH 7.5), 10 mM KCl and protease inhibitor cocktail) or Na^+-free hypotonic buffer (50 mM Tris–HCl (pH 7.5), 10 mM KCl and protease inhibitor cocktail). The cell debris were removed by centrifugation (2,000g, 5 min, 4 °C). The membrane fraction was collected by ultracentrifugation (112,000g, 30 min, 4 °C) and stored at −80 °C before use. The crude membrane (250 μg per sample) was incubated with SGLT2 inhibitor in an assay buffer (100 mM NaCl and 10 mM HEPES/Tris, pH 7.4) or Na^+-free assay buffer (100 mM choline chloride and 10 mM HEPES/Tris, pH 7.4) at room temperature for 2 h. Reactions were terminated by filtration through a GF/C filter plate (Corning) presoaked in assay buffer containing 0.1% bovine serum albumin. The sample in the filter plate was washed three times with the assay buffer and eluted with acetonitrile: water (80:20, v/v). The extract solution from the filter plate was diluted with water containing candesartan as an internal standard, and the SGLT2 inhibitor concentration was quantified via LC–MS/MS.
Nonspecific binding was measured using the crude membrane of nontransfected Expi293 cells. Specific binding was calculated by subtracting nonspecific binding from the binding of hSGLT2-expressing cells. Specific binding was normalized to hSGLT2 protein expression levels, measured via FSEC. The equilibrium dissociation constant (Kd) and maximum number of binding sites (Bmax) were calculated via nonlinear regression in GraphPad Prism 8.4.3. The specific binding of the hSGLT2 mutants was normalized to the Bmax of WT hSGLT2.
The concentrations of the extract solution from the filter plate and of the cell lysate were quantified using a tandem mass spectrometry QTRAP6500 System (SCIEX) coupled with an ACQUITY UPLC system (Waters) using the internal standard method. Mobile phases A and B used 10 mM of ammonium bicarbonate and acetonitrile, respectively.

SGLT2 = test system: SGLT2; parameters: method as in literature; conditions: referee comment in peer review file; ref literature; cited from earlier work
Mock cells = assay: α-MG uptake in mock (empty vector) HEK293 cells; format: cell-based, human; conditions: Control (no inhibitor)
Experimental: HEK293 cells (ECACC 85120602) were maintained in Dulbecco’s modified Eagle medium (Gibco) supplemented with 10% fetal bovine serum (Thermo Scientific), 2 mM L-glutamine, 100 U ml^−1 benzylpenicillin and 100 µg ml^−1 streptomycin at 37 °C in a humidified atmosphere (5% CO2 in air). HEK293 cells were seeded at 1.0 × 10^5 cells per well in poly-L-lysine coated 24-well plates. The cells in each well were transiently transfected with 0.25 µg hMAP17 plasmid and 0.50 µg hSGLT2 plasmid using Lipofectamine 2000 (Life Technologies) and cultured for 48 h. […]
Cell lysates were deproteinized by adding acetonitrile containing candesartan as the internal standard. The α-MG concentration was quantified via liquid chromatography–tandem mass spectrometry (LC–MS/MS) using the internal standard method.
Cellular protein content was determined using a bicinchoninic acid protein assay kit (Thermo Fisher Scientific). The uptake of α-MG was expressed as the ratio of concentration in the cells (in pmol per mg protein) to concentration in the medium (in pmol μl^−1); this is known as the cell-to-medium ratio (in μl per mg protein).
In the inhibition study, the cell-to-medium ratio of cells transfected with the empty vector was used as the background. […] IC50 was calculated via nonlinear regression using GraphPad Prism 8.4.3. […]

| Structure (SMILES) | Canagliflozin binding (% of WT) ([1]; 30 nM canagliflozin, WT, replicates) | Canagliflozin binding (% of hSGLT2) ([1]; 30 nM canagliflozin, hSGLT2 membrane) | Bmax ([1]; Na(+), mean ± SEM n=3) [pmol/mg-protein] | Kd ([1]; Na(+), mean ± SEM n=3) [nM] | Bmax ([1]; Na(-), mean ± SEM n=3) [pmol/mg-protein] | Kd ([1]; Na(-), mean ± SEM n=3) [nM] | Canagliflozin binding ([1]; Sodium 0 mM, replicates) | Canagliflozin binding ([1]; Sodium 1 mM, replicates) | Canagliflozin binding ([1]; Sodium 10 mM, replicates) | Canagliflozin binding ([1]; Sodium 100 mM, replicates) | Bmax in the absence versus the presence of Na+ (in words) ([1]; absence vs presence of Na+) | Kd ([1]; in the presence of sodium, rounded value quoted by the referee in peer review file) [nM] | IC50 (SGLT2) [nM] | α-MG uptake (Mock cells) |
| --- | --- | --- | --- | --- | --- | --- | --- | --- | --- | --- | --- | --- | --- | --- |
| Cc1ccc([C@@H]2O[C@H](CO)[C@@H](O)[C@H](O)[C@H]2O)cc1Cc1ccc(-c2ccc(F)cc2)s1 [Canagliflozin] | 95.0024 % of WT and 98.5721 % of WT and 106.426 % of WT | 85.124 % of hSGLT2 and 96.4187 % of hSGLT2 and 118.457 % of hSGLT2 | 1.91 ± 0.16 | 94 ± 21.8 | 1.33 ± 0.12 | 109 ± 25.4 | 0.5239 pmol/mg-protein and 0.5745 pmol/mg-protein and 0.6364 pmol/mg-protein | 0.4659 pmol/mg-protein and 0.5424 pmol/mg-protein and 0.6685 pmol/mg-protein | 0.8906 pmol/mg-protein and 0.8030 pmol/mg-protein and 0.9338 pmol/mg-protein | 0.9992 pmol/mg-protein and 1.5850 pmol/mg-protein and 1.3270 pmol/mg-protein | partially lower | ~100 | ~2.7 |  |
| CO[C@H]1O[C@H](CO)[C@@H](O)[C@H](O)[C@H]1O [α-MG, α-methyl-D-glucopyranoside] |  |  |  |  |  |  |  |  |  |  |  |  |  | 1.2395 μL/mg-protein and 1.0638 μL/mg-protein and 1.0076 μL/mg-protein and 1.0525 μL/mg-protein |
